Laboratory results as given in patent US20240199552A1, “AMIDE COMPOUND AND USE THEREOF” (Metisa Biotechnology Co., Ltd, priority 2021, published 2024).

Columns and labels:
Assay type in all cases: in vivo
Mythimna separata = test: Insecticidal activity against Mythimna separata, Airbrush spray on maize leaf pieces; settings: 72 h, 0.05 mg/L, 3 days after the administration, 3rd-instar larvae, read-out: mortality rate against Mythimna separata
Experimental: (§1) After the compound to be determined was dissolved in a mixed solvent of acetone/methanol (1:1), it was diluted with water containing 0.1% (wt) Tween-80 to a desired concentration.
(§2) Mythimna separata, Diamondback moth, Chilo suppressalis, Spodoptera exigua, Myzus persicae, and Franklinella occidentalis were used as targets, and the activity was tested by an Airbrush spray method.
Determination method: maize leaves were cut into 2 cm leaf pieces, and the front and back of each leaf piece were sprayed under an Airbrush spray treatment pressure of 10 psi (approximate to 0.7 kg/cm^2) and with a spray volume of 0.5 mL. After drying in the shade, 10 3rd-instar larvae were inoculated for each treatment, and each treatment was repeated for 3 times. After the treatment, the leaf pieces were put into an observation chamber at 25° C. and with a relative humidity of 60% to 70%, and the number of living larvae was investigated 3 days after the administration of the compounds, and the mortality rates were calculated.

Diamondback moth = test: Insecticidal activity against Diamondback moth, Airbrush spray on cabbage leaf discs; settings: Plutella xylostella, foliar, 72 h, 3 days after the administration; for mortality at 0.156 µg/mL: 0.156 mg/L, read-out: Mortality rate (%, 3 days after the administration) 0.156 mg/L; for mortality at 0.156 µg/mL / mortality at 0.313 µg/mL / mortality at 10 µg/mL: Diamondback moth; for mortality at 0.313 µg/mL: 0.313 mg/L, read-out: Mortality rate (%, 3 days after the administration) 0.313 mg/L; for mortality at 1.25 µg/mL: 1.25 mg/L, 3rd-instar larvae, read-out: mortality rate against Diamondback moth; for mortality at 10 µg/mL: 10 mg/L, read-out: Mortality rate (%, 3 days after the administration) 10 mg/L
Experimental: as §1, §2
Determination method: cabbage leaves were formed into leaf discs having a diameter of 2 cm using a puncher, and the front and back of each leaf disc were sprayed under an Airbrush spray treatment pressure of 10 psi (approximate to 0.7 kg/cm^2) and with a spray volume of 0.5 mL. After drying in the shade, 10 3rd-instar larvae were inoculated for each treatment, and each treatment was repeated for 3 times. After the treatment, the leaf discs were placed into an observation chamber at 25° C. and with a relative humidity of 60% to 70%, and the number of living larvae was investigated 3 days after the administration of the compounds, and the mortality rates were calculated.

Chilo suppressalis = test: Insecticidal activity against Chilo suppressalis, sprayed rice stems; settings: 72 h, 0.625 mg/L, 3 days after the administration, 3rd-instar larvae, read-out: mortality rate against Chilo suppressalis
Experimental: as §1, §2
Determination method: 1) Preparation of rice seedlings: rice was cultured in a plastic small cup with a diameter of 4.5 cm and a height of 4 cm in a constant temperature room (the temperature was 26-28° C., the relative humidity was about 60-80%, and the illumination was 16hL:8hD), when the rice grown to a 4-5 leaf stage, robust and uniformly grown rice seedlings were selected for pharmaceutical treatment, and 3 replicates were set for each treatment. 2) Preparation of test insects: 3rd-instar larvae of Chilo suppressalis were continuously reared indoors. 3) Rice stems were sprayed and insects were introduced. A spray method was used to treat whole rice seedlings with uniform spray, and each treatment was 15 mL. Blank controls were treated firstly, and then the above operation was repeated in an order of experimental concentrations from low to high. After the spray treatment of the rice seedlings, they were placed in the shade to air-dry drug liquid, about 5 cm of the stem from a basal part of the stem was cut and fed to the test insects. A glass culture dish with a diameter of 90 mm was prepared, filter paper was placed on the bottom of the dish, then water was added to moisturize. About 5 rice stems were placed in each dish, 10 larvae were introduced, and the culture dish was closed with non-woven fabric and placed in the constant-temperature room for culture. 3 days after the administration, the number of residual live insects was investigated.

Spodoptera exigua = test: Insecticidal activity against Spodoptera exigua, leaf disc dipping feeding method; settings: foliar, 72 h, 0.625 mg/L, 3 days after the administration, read-out: mortality rate against Spodoptera exigua
Experimental: After the compound to be determined was dissolved in a mixed solvent of acetone/methanol (1:1), it was diluted with water containing 0.1% (wt) Tween-80 to a desired concentration. […]
Determination method: the activity was tested by using a leaf disc dipping feeding method. Leaf discs were dipped in a drug solution for 10 s, and placed in a culture dish after being air-dried, there were 4 discs in each dish, and a filter paper was placed in the culture dish for moisture retention. 10 test insects of Spodoptera exigua were introduced to each dish, with 3 replicates.
They were placed in a light incubator for culture at a temperature of 25° C. and an illumination of 14hL:10hD. On the 1st, 2nd, and 3rd day after the administration, the number of dead Spodoptera exigua was investigated and the mortality rate was calculated.

Myzus persicae = test: Insecticidal activity against Myzus persicae, Airbrush spray on cabbage leaves; settings: 50 mg/L, after 48 h, read-out: mortality rate against Myzus persicae
Experimental: as §1, §2
Determination method: a culture dish with a diameter of 6 cm was taken, the bottom of the dish was covered by a layer of filter paper, and an appropriate amount of tap water was added to moisturize the paper. Cabbage leaves with an appropriate size (the diameter was about 3 cm) and 15-30 aphids grown were cut from cabbage plants used to culture Myzus persicae, winged aphids and aphids on the front of the leave were removed, and it was placed in the culture dish while the back of the leave was upward. The pressure of airbrush spray treatment was 10 psi (about 0.7 kg/cm^2), the liquid spray volume was 0.5 mL, and there were 3 replicates for each treatment. After the treatment, the leave was put into an observation room for culture at 25° C. and a relative humidity of 60-70%. After 48 h, the number of live insects was investigated and the mortality rate was calculated.

[1] = tested on: Franklinella occidentalis; test: Insecticidal activity against Franklinella occidentalis nymphs, sprayed bean leaves
Experimental: as §1, §2
Determination method: fresh bean leaves cultivated in a greenhouse were selected, a hand-held Airbrush sprayer was used to spray uniformly, each treatment was 1 mL, and after being air-dried naturally, the leaves were placed in a finger-shaped tube. Neat and healthy Franklinella occidentalis nymphs were introduced, there were 15 nymphs for each treatment, 3 replicates were set for the experiment, and water treatment was set as a blank control. After the treatment, the leaves were put into an indoor culture room for culture at 24° C., a relative humidity of 60-70%, and natural light. After 72 h, the number of live insects was investigated and the mortality rate was calculated.

cat flea = test: Insecticidal experiment on cat flea, thin film in culture dish; settings: Ctenocephalides felis, 72 h, read-out: mortality rate, cat flea
Experimental: 4 mg of the compound to be determined was dissolved in 40 mL of acetone to obtain an acetone solution with a concentration of 100 mg/L. 400 μL of the drug solution was applied on the bottom and sides of a culture dish with an inner diameter of 5.3 cm, then after acetone was evaporated, a thin film of the compound of the present invention was made on the inner wall of the culture dish. The inner wall of the culture dish used was 40 cm^2, and the treatment dosage was 1 μg/cm^2. 10 adult cat fleas (mixed male and female) were put into the dish, and it was stored in a constant-temperature room at 25° C. after being covered. The number of dead insects after 72 h was checked and the mortality rate was calculated. The experiment was repeated for 3 times.

C#CCN(C(=O)c1ccc(F)nc1)c1cccc(C(=O)Nc2c(I)cc(C(F)(C(F)(F)F)C(F)(F)F)cc2C(F)(F)F)c1F [Compound 48]
mortality at 0.05 µg/mL (Mythimna separata): > 90%
mortality at 0.156 µg/mL (Diamondback moth): 100%
mortality at 0.313 µg/mL (Diamondback moth): 100%
mortality at 1.25 µg/mL (Diamondback moth): > 90%
mortality at 10 µg/mL (Diamondback moth): 100%
mortality at 0.625 µg/mL (Chilo suppressalis): > 90%
mortality at 0.625 µg/mL (Spodoptera exigua): > 90%
mortality at 50 µg/mL (Myzus persicae): > 90%
Mortality rate (%, 3 days after the administration) 10 mg/L [1]: 100%
Mortality rate (%, 3 days after the administration) 100 mg/L [1]: 100%
mortality at 1 µg/cm2 (cat flea): > 90%

C#CCN(C(=O)c1ccc(F)cc1)c1cccc(C(=O)Nc2c(Br)cc(C(F)(C(F)(F)F)C(F)(F)F)cc2C(F)(F)F)c1F [Compound 35]
mortality at 0.05 µg/mL (Mythimna separata): > 90%
mortality at 0.156 µg/mL (Diamondback moth): 100%
mortality at 0.313 µg/mL (Diamondback moth): 100%
mortality at 1.25 µg/mL (Diamondback moth): > 90%
mortality at 10 µg/mL (Diamondback moth): 100%
mortality at 0.625 µg/mL (Chilo suppressalis): > 90%
mortality at 0.625 µg/mL (Spodoptera exigua): > 90%
mortality at 50 µg/mL (Myzus persicae): > 90%
Mortality rate (%, 3 days after the administration) 10 mg/L [1]: 100%
Mortality rate (%, 3 days after the administration) 100 mg/L [1]: 100%
mortality at 1 µg/cm2 (cat flea): > 90%

C=CCN(C(=O)c1ccc(F)nc1)c1cccc(C(=O)Nc2c(I)cc(C(F)(C(F)(F)F)C(F)(F)F)cc2C(F)(F)F)c1F [Compound 20]
mortality at 0.05 µg/mL (Mythimna separata): > 90%
mortality at 0.156 µg/mL (Diamondback moth): 100%
mortality at 0.313 µg/mL (Diamondback moth): 100%
mortality at 1.25 µg/mL (Diamondback moth): > 90%
mortality at 10 µg/mL (Diamondback moth): 100%
mortality at 0.625 µg/mL (Chilo suppressalis): > 90%
mortality at 0.625 µg/mL (Spodoptera exigua): > 90%
mortality at 50 µg/mL (Myzus persicae): > 90%
Mortality rate (%, 3 days after the administration) 10 mg/L [1]: 100%
Mortality rate (%, 3 days after the administration) 100 mg/L [1]: 100%
mortality at 1 µg/cm2 (cat flea): > 90%

C=CCN(C(=O)c1ccc(F)nc1)c1cccc(C(=O)Nc2c(Br)cc(C(F)(C(F)(F)F)C(F)(F)F)cc2C(F)(F)F)c1F [Compound 19]
mortality at 0.05 µg/mL (Mythimna separata): > 90%
mortality at 0.156 µg/mL (Diamondback moth): 100%
mortality at 0.313 µg/mL (Diamondback moth): 100%
mortality at 1.25 µg/mL (Diamondback moth): > 90%
mortality at 10 µg/mL (Diamondback moth): 100%
mortality at 0.625 µg/mL (Chilo suppressalis): > 90%
mortality at 0.625 µg/mL (Spodoptera exigua): > 90%
mortality at 50 µg/mL (Myzus persicae): > 90%
Mortality rate (%, 3 days after the administration) 10 mg/L [1]: 100%
Mortality rate (%, 3 days after the administration) 100 mg/L [1]: 100%
mortality at 1 µg/cm2 (cat flea): > 90%

C=CCN(C(=O)c1ccc(F)cc1)c1cccc(C(=O)Nc2c(Br)cc(C(F)(C(F)(F)F)C(F)(F)F)cc2C(F)(F)F)c1F [Compound 7]
mortality at 0.05 µg/mL (Mythimna separata): > 90%
mortality at 0.156 µg/mL (Diamondback moth): 100%
mortality at 0.313 µg/mL (Diamondback moth): 100%
mortality at 1.25 µg/mL (Diamondback moth): > 90%
mortality at 10 µg/mL (Diamondback moth): 100%
mortality at 0.625 µg/mL (Chilo suppressalis): > 90%
mortality at 0.625 µg/mL (Spodoptera exigua): > 90%
mortality at 50 µg/mL (Myzus persicae): > 90%
Mortality rate (%, 3 days after the administration) 10 mg/L [1]: 91.11%
Mortality rate (%, 3 days after the administration) 100 mg/L [1]: 100%
mortality at 1 µg/cm2 (cat flea): > 90%

C#CCN(C(=O)c1ccc(F)nc1)c1cccc(C(=O)Nc2c(Br)cc(C(F)(C(F)(F)F)C(F)(F)F)cc2C(F)(F)F)c1F [Compound 47]
mortality at 0.05 µg/mL (Mythimna separata): > 90%
mortality at 0.156 µg/mL (Diamondback moth): 100%
mortality at 0.313 µg/mL (Diamondback moth): 100%
mortality at 1.25 µg/mL (Diamondback moth): > 90%
mortality at 10 µg/mL (Diamondback moth): 100%
mortality at 0.625 µg/mL (Chilo suppressalis): > 90%
mortality at 0.625 µg/mL (Spodoptera exigua): > 90%
mortality at 50 µg/mL (Myzus persicae): > 90%
Mortality rate (%, 3 days after the administration) 10 mg/L [1]: 100%
Mortality rate (%, 3 days after the administration) 100 mg/L [1]: 100%
mortality at 1 µg/cm2 (cat flea): > 90%

C=CCN(C(=O)c1ccc(F)cc1)c1cccc(C(=O)Nc2c(I)cc(C(F)(C(F)(F)F)C(F)(F)F)cc2C(F)(F)F)c1F [Compound 8]
mortality at 0.05 µg/mL (Mythimna separata): > 90%
mortality at 0.156 µg/mL (Diamondback moth): 100%
mortality at 0.313 µg/mL (Diamondback moth): 100%
mortality at 1.25 µg/mL (Diamondback moth): > 90%
mortality at 10 µg/mL (Diamondback moth): 100%
mortality at 0.625 µg/mL (Chilo suppressalis): > 90%
mortality at 0.625 µg/mL (Spodoptera exigua): > 90%
mortality at 50 µg/mL (Myzus persicae): > 90%
Mortality rate (%, 3 days after the administration) 10 mg/L [1]: 88.89%
Mortality rate (%, 3 days after the administration) 100 mg/L [1]: 100%
mortality at 1 µg/cm2 (cat flea): > 90%

C#CCN(C(=O)c1ccccc1)c1cccc(C(=O)Nc2c(Br)cc(C(F)(C(F)(F)F)C(F)(F)F)cc2C(F)(F)F)c1F [Compound 31]
mortality at 0.05 µg/mL (Mythimna separata): > 90%
mortality at 0.156 µg/mL (Diamondback moth): 100%
mortality at 0.313 µg/mL (Diamondback moth): 100%
mortality at 1.25 µg/mL (Diamondback moth): > 90%
mortality at 10 µg/mL (Diamondback moth): 100%
mortality at 0.625 µg/mL (Chilo suppressalis): > 90%
mortality at 0.625 µg/mL (Spodoptera exigua): > 90%
mortality at 50 µg/mL (Myzus persicae): > 90%
Mortality rate (%, 3 days after the administration) 10 mg/L [1]: 97.78%
Mortality rate (%, 3 days after the administration) 100 mg/L [1]: 100%
mortality at 1 µg/cm2 (cat flea): > 90%
